Patent publication US20260262643A1, “HERBICIDAL BENZOXAZINES” (FMC CORPORATION, priority 2022, published 2026)

Legend:
sedge, umbrella = assay: Test D flooded paddy test; assay type: in vivo, Cyperus difformis; details: 250 g ai/ha, applied to paddy water, visual rating after 13 to 14 days, scale 0 to 100 (0 no effect, 100 complete control)
Method in brief: (§1)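 Plants at the 2-leaf stage were grown in pots flooded to 3 cm, and compound was applied directly into the paddy water, with depth kept throughout. After 13–14 days in a greenhouse, injury was rated visually against untreated controls on a 0–100 scale (100 = complete control); a dash means not tested.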

ragweed [1] = assay: Test C preemergence; assay type: in vivo, Ambrosia artemisiifolia; details: for Plant response rating, Ragweed: Preemergence; for Ragweed plant response rating: preemergence
Method in brief: (§2)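 Visual injury score, 0–100 (100 = complete control), taken 10 days after treatment relative to untreated controls. Pre: directed spray onto soil over sown seeds. Post: foliar spray at one- to two-leaf stage, 2–10 cm. Solvent/surfactant formulation; loam–sand soil; greenhouse.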

green foxtail [2] = assay: Test C preemergence; assay type: in vivo, Setaria viridis; details: for Plant response rating, Foxtail, Green: Preemergence; for Foxtail, Green plant response rating: preemergence
Method in brief: as §2

blackgrass [3] = assay: Test C preemergence; assay type: in vivo, Alopecurus myosuroides; details: for Plant response rating, Blackgrass: Preemergence; for Blackgrass plant response rating: preemergence
Method in brief: as §2

corn [4] = assay: Test C preemergence; assay type: in vivo, Zea mays; details: for Plant response rating, Corn: Preemergence; for Corn plant response rating: preemergence
Method in brief: as §2

galium = assay: Test C postemergence; assay type: in vivo, Galium aparine; details: 10 days
Method in brief: as §2

barnyardgrass [5] = assay: Test C preemergence; assay type: in vivo, Echinochloa crusgalli; details: for Plant response rating, Barnyardgrass: Preemergence; for Barnyardgrass plant response rating: preemergence
Method in brief: as §2

ryegrass, Italian [6] = assay: Test C postemergence; assay type: in vivo, Lolium multiflorum; details: 10 days
Method in brief: as §2

green foxtail [7] = assay: Test C postemergence; assay type: in vivo, Setaria viridis; details: 10 days
Method in brief: as §2

rice = assay: Test D flooded paddy test; assay type: in vivo, Oryza sativa; details: 250 g ai/ha, applied to paddy water, visual rating after 13 to 14 days, scale 0 to 100 (0 no effect, 100 complete control)
Method in brief: as §1

blackgrass [8] = assay: Test C postemergence; assay type: in vivo, Alopecurus myosuroides; details: 10 days
Method in brief: as §2

corn [9] = assay: Test C postemergence; assay type: in vivo, Zea mays; details: 10 days
Method in brief: as §2

wheat [10] = assay: Test C postemergence; assay type: in vivo, Triticum aestivum; details: 10 days
Method in brief: as §2

barnyardgrass [11] = assay: Test D flooded paddy test; assay type: in vivo, Echinochloa crus-galli; details: 250 g ai/ha, applied to paddy water, visual rating after 13 to 14 days, scale 0 to 100 (0 no effect, 100 complete control)
Method in brief: as §1

wheat [12] = assay: Test C preemergence; assay type: in vivo, Triticum aestivum; details: for Plant response rating, Wheat: Preemergence; for Wheat plant response rating: preemergence
Method in brief: as §2

pigweed, palmer [13] = assay: Test C postemergence; assay type: in vivo, Amaranthus palmeri; details: 10 days
Method in brief: as §2

pigweed, palmer [14] = assay: Test C preemergence; assay type: in vivo, Amaranthus palmeri; details: for Plant response rating, Pigweed, Palmer: Preemergence; for Pigweed, Palmer plant response rating: preemergence
Method in brief: as §2

horseweed = assay: Test C postemergence; assay type: in vivo, Erigeron canadensis; details: 10 days
Method in brief: as §2

oat, wild [15] = assay: Test C postemergence; assay type: in vivo, Avena fatua; details: 10 days
Method in brief: as §2

soybean [16] = assay: Test C postemergence; assay type: in vivo, Glycine max; details: 10 days
Method in brief: as §2

barnyardgrass [17] = assay: Test C postemergence; assay type: in vivo, Echinochloa crusgalli; details: 10 days
Method in brief: as §2

ragweed [18] = assay: Test C postemergence; assay type: in vivo, Ambrosia artemisiifolia; details: 10 days
Method in brief: as §2

oat, wild [19] = assay: Test C preemergence; assay type: in vivo, Avena fatua; details: for Plant response rating, Oat, Wild: Preemergence; for Oat, Wild plant response rating: preemergence
Method in brief: as §2

ryegrass, Italian [20] = assay: Test C preemergence; assay type: in vivo, Lolium multiflorum; details: for Plant response rating, Ryegrass, Italian: Preemergence; for Ryegrass, Italian plant response rating: preemergence
Method in brief: as §2

soybean [21] = assay: Test C preemergence; assay type: in vivo, Glycine max; details: for Plant response rating, Soybean: Preemergence; for Soybean plant response rating: preemergence
Method in brief: as §2

ducksalad = assay: Test D flooded paddy test; assay type: in vivo, Heteranthera limosa; details: 250 g ai/ha, applied to paddy water, visual rating after 13 to 14 days, scale 0 to 100 (0 no effect, 100 complete control)
Method in brief: as §1

kochia [22] = assay: Test C postemergence; assay type: in vivo, Bassia scoparia; details: 10 days
Method in brief: as §2

kochia [23] = assay: Test C preemergence; assay type: in vivo, Bassia scoparia; details: for Plant response rating, Kochia: Preemergence; for Kochia plant response rating: preemergence
Method in brief: as §2

[24] = 500 g ai/ha, visual rating after 10 days, 0 to 100 scale (0 no effect, 100 complete control)
[25] = Test C, 125 g ai/ha, 0 to 100 scale (0 no effect, 100 complete control)
[26] = 125 g ai/ha, postemergence, 0 to 100 scale, 0 no effect, 100 complete control
[27] = Postemergence, 500 g ai/ha, visual 0 to 100 scale (0 no effect, 100 complete control)
[28] = 500 g ai/ha, 0 to 100 scale (0 no effect, 100 complete control)
[29] = 125 g ai/ha, 0 to 100 scale, 0 no effect, 100 complete control
[30] = 500 g ai/ha, postemergence, 0 to 100 scale (0 no effect, 100 complete control)
[31] = Postemergence, 125 g ai/ha, 0 to 100 scale (0 no effect, 100 complete control)

In the case of Cc1cccc2c1O[C@@H](C)CN2C(=O)c1cc(-n2cnc(C(C)C)n2)cc2ccoc12 [Compound 227], the “Plant response rating, Sedge, Umbrella (Flood)” value (sedge, umbrella) is reported as 98, the “Plant response rating, Ragweed” value (ragweed [1]; [24]) is reported as 50 and the “Ragweed plant response rating” value (ragweed [1]; [25]) is reported as 0. For the same compound, the “Plant response rating, Foxtail, Green” value (green foxtail [2]; [24]) was 100, the “Foxtail, Green plant response rating” value (green foxtail [2]; [25]) was 100 and the “Plant response rating, Blackgrass” value (blackgrass [3]; [24]) was 90. The “Blackgrass plant response rating” value (blackgrass [3]; [25]) was 80, the “Plant response rating, Corn” value (corn [4]; [24]) was 60 and the “Corn plant response rating” value (corn [4]; [25]) was 50. For the same compound, the “Plant response rating, Galium” value (galium; [26]) was 100, the “Plant response rating, Galium” value (galium; [27]) was 100 and the “Plant response rating, Barnyardgrass” value (barnyardgrass [5]; [24]) was 90. The “Barnyardgrass plant response rating” value (barnyardgrass [5]; [25]) was 80, the “Plant response rating, Ryegrass, Italian” value (ryegrass, Italian [6]; [26]) was 90 and the “Plant response rating, Ryegrass, Italian” value (ryegrass, Italian [6]; [27]) was 100. The “Plant response rating, Foxtail, Green” value (green foxtail [7]; [26]) was 80, the “Plant response rating, Foxtail, Green” value (green foxtail [7]; [27]) was 90 and the “Plant response rating, Rice (Flood)” value (rice) was 10. The “Plant response rating, Blackgrass” value (blackgrass [8]; [26]) was 50, the “Plant response rating, Blackgrass” value (blackgrass [8]; [27]) was 80 and the “Plant response rating, Corn” value (corn [9]; [26]) was 20. For the same compound, the “Plant response rating, Corn” value (corn [9]; [27]) was 80, the “Plant response rating, Wheat” value (wheat [10]; [26]) was 20 and the “Plant response rating, Wheat” value (wheat [10]; [27]) was 60. The “Plant response rating, Barnyardgrass (Flood)” value (barnyardgrass [11]) was 50, the “Plant response rating, Wheat” value (wheat [12]; [24]) was 30 and the “Wheat plant response rating” value (wheat [12]; [25]) was 0. The “Plant response rating, Pigweed, Palmer” value (pigweed, palmer [13]; [26]) was 100, the “Plant response rating, Pigweed, Palmer” value (pigweed, palmer [13]; [27]) was 100 and the “Plant response rating, Pigweed, Palmer” value (pigweed, palmer [14]; [24]) was 100. For the same compound, the “Pigweed, Palmer plant response rating” value (pigweed, palmer [14]; [25]) was 90, the “Plant response rating, Horseweed” value (horseweed; [26]) was 20 and the “Plant response rating, Horseweed” value (horseweed; [27]) was 40. The “Plant response rating, Oat, Wild” value (oat, wild [15]; [26]) was 30, the “Plant response rating, Oat, Wild” value (oat, wild [15]; [27]) was 60 and the “Plant response rating, Soybean” value (soybean [16]; [26]) was 100. For the same compound, the “Plant response rating, Soybean” value (soybean [16]; [27]) was 100, the “Plant response rating, Barnyardgrass” value (barnyardgrass [17]; [26]) was 40 and the “Plant response rating, Barnyardgrass” value (barnyardgrass [17]; [27]) was 70. The “Plant response rating, Ragweed” value (ragweed [18]; [26]) was 10, the “Plant response rating, Ragweed” value (ragweed [18]; [27]) was 50 and the “Plant response rating, Oat, Wild” value (oat, wild [19]; [24]) was 90. The “Oat, Wild plant response rating” value (oat, wild [19]; [25]) was 90, the “Plant response rating, Ryegrass, Italian” value (ryegrass, Italian [20]; [24]) was 90 and the “Ryegrass, Italian plant response rating” value (ryegrass, Italian [20]; [25]) was 90. The “Plant response rating, Soybean” value (soybean [21]; [24]) was 90, the “Soybean plant response rating” value (soybean [21]; [25]) was 70 and the “Plant response rating, Ducksalad (Flood)” value (ducksalad) was 80. For the same compound, the “Plant response rating, Kochia” value (kochia [22]; [26]) was 90, the “Plant response rating, Kochia” value (kochia [22]; [27]) was 100 and the “Plant response rating, Kochia” value (kochia [23]; [24]) was 100. The “Kochia plant response rating” value (kochia [23]; [25]) was 90.

For Cc1ncn(-c2ccc(C)c(C(=O)N3CC(C(F)(F)F)Oc4c(Cl)cccc43)c2)n1 (centres unmarked) [Compound 349], the “Plant response rating, Sedge, Umbrella (Flood)” value (sedge, umbrella) was 95, the “Ragweed plant response rating” value (ragweed [1]; [28]) was 80 and the “Plant response rating, Ragweed” value (ragweed [1]; [29]) was 20. The “Foxtail, Green plant response rating” value (green foxtail [2]; [28]) was 100, the “Plant response rating, Foxtail, Green” value (green foxtail [2]; [29]) was 100 and the “Blackgrass plant response rating” value (blackgrass [3]; [28]) was 80. The “Plant response rating, Blackgrass” value (blackgrass [3]; [29]) was 50, the “Corn plant response rating” value (corn [4]; [28]) was 60 and the “Plant response rating, Corn” value (corn [4]; [29]) was 40. The “Plant response rating, Galium” value (galium; [30]) was 100, the “Plant response rating, Galium” value (galium; [31]) was 100 and the “Barnyardgrass plant response rating” value (barnyardgrass [5]; [28]) was 100. For the same compound, the “Plant response rating, Barnyardgrass” value (barnyardgrass [5]; [29]) was 70, the “Plant response rating, Ryegrass, Italian” value (ryegrass, Italian [6]; [30]) was 80 and the “Plant response rating, Ryegrass, Italian” value (ryegrass, Italian [6]; [31]) was 50. For the same compound, the “Plant response rating, Foxtail, Green” value (green foxtail [7]; [30]) was 90, the “Plant response rating, Foxtail, Green” value (green foxtail [7]; [31]) was 70 and the “Plant response rating, Rice (Flood)” value (rice) was 0. The “Plant response rating, Blackgrass” value (blackgrass [8]; [30]) was 100, the “Plant response rating, Blackgrass” value (blackgrass [8]; [31]) was 90 and the “Plant response rating, Corn” value (corn [9]; [30]) was 90. The “Plant response rating, Corn” value (corn [9]; [31]) was 80, the “Plant response rating, Wheat” value (wheat [10]; [30]) was 80 and the “Plant response rating, Wheat” value (wheat [10]; [31]) was 30. For the same compound, the “Plant response rating, Barnyardgrass (Flood)” value (barnyardgrass [11]) was 0, the “Wheat plant response rating” value (wheat [12]; [28]) was 70 and the “Plant response rating, Wheat” value (wheat [12]; [29]) was 20. The “Plant response rating, Pigweed, Palmer” value (pigweed, palmer [13]; [30]) was 90, the “Plant response rating, Pigweed, Palmer” value (pigweed, palmer [13]; [31]) was 50 and the “Pigweed, Palmer plant response rating” value (pigweed, palmer [14]; [28]) was 100. The “Plant response rating, Pigweed, Palmer” value (pigweed, palmer [14]; [29]) was 100, the “Plant response rating, Horseweed” value (horseweed; [30]) was 50 and the “Plant response rating, Horseweed” value (horseweed; [31]) was 10. For the same compound, the “Plant response rating, Oat, Wild” value (oat, wild [15]; [30]) was 70, the “Plant response rating, Oat, Wild” value (oat, wild [15]; [31]) was 30 and the “Plant response rating, Soybean” value (soybean [16]; [30]) was 100. The “Plant response rating, Soybean” value (soybean [16]; [31]) was 100, the “Plant response rating, Barnyardgrass” value (barnyardgrass [17]; [30]) was 90 and the “Plant response rating, Barnyardgrass” value (barnyardgrass [17]; [31]) was 30. The “Plant response rating, Ragweed” value (ragweed [18]; [30]) was 40, the “Plant response rating, Ragweed” value (ragweed [18]; [31]) was 30 and the “Oat, Wild plant response rating” value (oat, wild [19]; [28]) was 90. For the same compound, the “Plant response rating, Oat, Wild” value (oat, wild [19]; [29]) was 20, the “Ryegrass, Italian plant response rating” value (ryegrass, Italian [20]; [28]) was 100 and the “Plant response rating, Ryegrass, Italian” value (ryegrass, Italian [20]; [29]) was 100. For the same compound, the “Soybean plant response rating” value (soybean [21]; [28]) was 100, the “Plant response rating, Soybean” value (soybean [21]; [29]) was 50 and the “Plant response rating, Ducksalad (Flood)” value (ducksalad) was 0. The “Plant response rating, Kochia” value (kochia [22]; [30]) was 90, the “Plant response rating, Kochia” value (kochia [22]; [31]) was 80 and the “Kochia plant response rating” value (kochia [23]; [28]) was 90. The “Plant response rating, Kochia” value (kochia [23]; [29]) was 80.
